Values of other authors, collected in patent US20110008428A1, “SOLID PHARMACEUTICAL COMPOSITION COMPRISING A NON-PEPTIDE ANGIOTENSIN II RECEPTOR ANTAGONIST AND A DIURETIC” (ratiopharm GmbH, priority 2008, published 2011).

Conditions: free acid form; physiological pH range of the gastro-intestinal tract, between pH 1-7

## CCCc1nc2c(C)cc(-c3nc4ccccc4n3C)cc2n1Cc1ccc(-c2ccccc2C(=O)O)cc1 [Telmisartan, 4′-[(1,4′-dimethyl-2′-n-propyl-[2,6′-bi-1H-benzimidazol]-1′-yl)methyl]-[1,1′-biphenyl]-2-carboxylic acid]
  solubility in aqueous systems: very poor
